For this test, the system named is CD8+ T cells. The test can be described thus: In vitro stimulation of CD3+ T cells with aCD3/aCD28 beads in presence of UA. The format is cell-based, FVB mice. The following applies: 48 h, ICG001 with UA. The protocol:
(FIG. 2A) Scheme of CD3+ T-cell activation and analysis for various timepoints. (FIG. 2B) Reduced effector molecule expression on in vitro treated cells (n=3 pooled from three independent experiments). Isolated T-cells were stimulated for 48 h at the presence of UA or DMSO in the indicated doses. Data are mean ± SD, *p < 0.05 by two-sided t-test. (FIG. 2C) Reduced effector molecule expression on in vitro treated cells (n=3 pooled from three independent experiments). Isolated T-cells were stimulated for 48 h at the presence of UA or DMSO in the indicated doses. Data are mean ± SD, *p < 0.05 by two-sided t-test. (FIG. 2D) Quantification of T memory stem cells (TSCM: CD44^-CD62L^+Sca1^hi) after 24 h, 48 h and 96 h post stimulation with aCD3/aCD28 stimulation beads as indicated in (A) (n=4 pooled from four independent experiments). Data are mean ± SD, statistical analysis was performed via two-sided t-test (*p < 0.05; **p < 0.01; n.s. not significant). (FIG. 2E) Mitochondrial membrane potential within naïve CD62L^+CD44^-CD8^+ T cells, with TMRM^lo representing cells with low mitochondrial membrane potential. Cells were stimulated for 48 h as depicted in (A). Data are mean ± SD, n=4; ***p <0.001 by two-sided t-test. Experiment was repeated twice in independent experiments. (FIG. 2F) Representative histogram and quantification of memory marker CD95 expression in CD62L^+CD44^-CD8^+ cells, 48 hours after in vitro stimulation. Data are mean ± SD; n=5; ****p < 0.0001 by two-sided t-test. Data depicts one of two independent experiments. (FIG. 2G) Analysis of TIL of UA-fed mice, treated as depicted in FIG. 1J. Percentage of TSCM within CD8+ (G; n=7), as well as TCF1 (H; n=7) PD1^hi,Tim3^hi and CTLA4hi (I-K, all n=6) in the TIL CD8+ population are shown. Data are mean ± SD, statistical analysis was performed via two-sided t-test (*p < 0.05; **p < 0.01;, ***p <0.001.). Data depicts one of two independent experiments. (FIG. 2H) The same experiment as FIG. 2G with TCF1 (n=7) in the TIL CD8+ population. (FIG. 2I) The same experiment as FIG. 2G with PD1^hi (n=6) in the TIL CD8+ population. (FIG. 2J) The same experiment as FIG. 2G with Tim3^hi (n=6) in the TIL CD8+ population. (FIG. 2K) The same experiment as FIG. 2G with CTLA4hi (n=6) in the TIL CD8+ population. (FIG. 2L) Flow cytometry readout of ex vivo cytokine release of previously isolated TIL upon re-stimulation with PMA/ionomycin. Data are mean ± SD with n=7 per group. Statistical analysis was performed by two-sided t-test (**p < 0.01). One out of two independent experiments are shown. (FIG. 2M) Flow cytometry readout of ex vivo cytokine release of previously isolated TIL upon re-stimulation with PMA/ionomycin. Data are mean ± SD with n=7 per group. Statistical analysis was performed by two-sided t-test (**p < 0.01). One out of two independent experiments are shown.
(FIG. 4A) Scheme of CD3+ T-cell activation and analysis for various timepoints in order to investigate mitophagy induction in vitro. (FIG. 4B) Analysis of mitochondrial membrane potential within CD8+ T cells, with TMRM^lo representing cells with low mitochondrial membrane potential. Analysis was performed six hours after stimulation with aCD/aCD28 stimulation beads at the presence of the indicated treatments. N=4 per group, *p < 0.05 by Mann Whitney U test. One of two independent experiments are shown. (FIG. 4C) Representative flow histogram and quantification of lysosome formation in CD8+ cells six hours after in vitro stimulation. MFI shown relative to DMSO controls, n=4. Data are normalised mean ± SD, statistical analysis by two-sided t-test. One out of two independent experiments are shown. (FIG. 4D) Mitotracker Red staining of in vitro stimulated CD8+ cells after 24 hours of Urolithin A (UA25 n=6; UA50 n=6) or vehicle control treatment (DMSO: n=4). A representative flow histogram depicting identification of Mitotracker^hi cells is shown. […]

Turning to `O=C1[C@H](Cc2ccc(O)cc2)N2C(=O)CCN(C(=O)NCc3ccccc3)[C@H]2CN1Cc1cccc2ccccc12` [ICG001, reference compound], the “UA-induced TCF1 expression” value was “abrogated” and the “UA-induced TSCM formation” value was “abrogated”.
